# Results as given in US20140127185A1, “METHODS AND COMPOSITIONS USING NEUROPROTECTIVE STEROIDS AND THROMBOLYTIC AGENTS” (priority 2012, published 2014).
# Assays:
# MMP-9 [1] = experiment: Permanent MCAO in rats: MMP-9 in peri-infarct cortex (Western blot, gelatin zymography, immunohistochemistry); format: in vivo, rat; conditions: for Expression of MMP-9 (immunohistochemistry): pMCAO, brain section; for Expression of MMP-9 (immunohistochemistry) / MMP-9 activity/levels (gelatin zymography): peri-infarct cortex at 72 hours; for Expression of MMP-9 (Western blot) / MMP-9 activity/levels (gelatin zymography): permanent MCAO; for Expression of MMP-9 (Western blot): 8 mg/kg i.p. 1 hour and s.c. 6 hours post-occlusion, peri-infarct cortex at 72 hours post-MCAO; for MMP-9 activity/levels (gelatin zymography): 8 mg/kg
# Source text: (§1) Permanent focal cerebral ischemia is induced in the rat by direct ligation of the MCA. Peri-operative procedures and physiological monitoring are done similarly to those for thrombotic stroke surgery. Briefly, under anesthesia, the left CCA is isolated through a ventral midline neck incision and ligated permanently with a 4-0 surgical silk ligature. The left temporoparietal region of the head is shaved and a 2-cm incision is made vertically between the orbit and the ear canal. The underlying temporalis muscle is excised, and under direct visualization, the […] MCA is exposed through a 2-mm burr hole drilled 2 mm rostral to the fusion of the zygomatic arch with the squamosal bone. Drilling is performed under saline irrigation to the area throughout the procedure to prevent heat injury. […] The site of the occlusion is proximal to the MCA bifurcation, but distal to the origin of the lenticulostriate arteries. Using fine forceps, the dura and arachnoid overlying the MCA is opened and cut. The MCA is cauterized and cut permanently to […] recanalization using a bipolar electrocauterizer without damaging the brain surface. The temporalis muscle and skin is closed in layers, and rats allowed to recover from anesthesia on the heating pad.
# (§2) All experimental treatments by injection are made in stock solutions using HBC (2-hydroxypropyl-β-cyclodextrin, 25% w/v solution in H2O) as the solvent. The HBC vehicle allows progesterone and allopregnanolone to be dissolved in a non-toxic aqueous solution. The initial dose of progesterone is given intraperitoneally for rapid absorption; all other injections are given subcutaneously. A simlar protocol may be followed for allopregnanolone.
# (§3) Peri-infarct cortical tissue is processed for protein analysis. Tissues are homogenized in T-per (Pierce, Rockford, Ill.) containing protease inhibitor cocktail (P8340, Sigma). Homogenates are centrifuged for 15 minutes at 13,000 g. 40 μg of total protein is separated on 8-12% gel and transferred onto polyvinylidene difluoride (Millipore, Mass., USA; PVDF) membranes at 300 mA for 2 hours. To measure the level of immunoglobulin, the membranes were incubated overnight at 4° C. with anti Rat IgG conjugated to biotin. bEND 3 cells are subjected to hypoxia/reperfusion for 9 hours and then lysed on ice in 100 μl of RIPA buffer. Cell lysated are boiled and then electrophoresed in 12% SDS-PAGE acrylamide gels, transferred onto PVDF membranes, and incubated for 1 hour in TBS-T (tris-buffered saline and 0.1% Tween 20) containing 5% bovine serum albumin (BSA). Membranes are then incubated overnight at 4° C. with primary antibodies against occludin (Invitrogen, Calif., USA; 1:1000), claudin-5 (Invitrogen; 1:1000), and ZO-1 (Invitrogen; 1:1000), washed in TBS-T, and incubated for 1 hour at room temperature with corresponding peroxidase-conjugated secondary antibodies (1:5000; KPL, Gaithersburg, Md.). All blots are stripped and re-incubated with β-actin antibodies (1:5000, Sigma) as a loading control. The peroxidase reaction is developed with an ECL-plus detection kit (Amersham BioScience, Piscataway, N.J.). Intensity of the bands is measured by an Image Gauge version. 4.0 program (FUJI Photo Film Co., Ltd).
# (§4) Rats were randomly assigned to receive progesterone (n=5), allopregnanolone (n=5), or vehicle (n=5). Progesterone and allopregnanolone (8 mg/kg) were dissolved in 22.5% 2-hydroxypropyl-β-cyclodextrin (25% w/v solution in water) (HBC) and given by intraperitoneal injection 1 hour post-occlusion. An additional 8 mg/kg subcutaneous injection was given 6 hours after middle cerebral artery occlusion (MCAO).
# (§5) The rats were euthanized at 72 hours post-MCAO. The peri-infarct region was sampled using a 4-mm tissue punch.
# MMP-2 = experiment: Permanent MCAO in rats: MMP-2 in peri-infarct cortex (Western blot, gelatin zymography, immunohistochemistry); format: in vivo, rat; conditions: for Expression of MMP-2 (immunohistochemistry): pMCAO, brain section; for Expression of MMP-2 (immunohistochemistry) / MMP-2 activity/levels (gelatin zymography): peri-infarct cortex at 72 hours; for Expression of MMP-2 (Western blot) / MMP-2 activity/levels (gelatin zymography): permanent MCAO; for Expression of MMP-2 (Western blot): 8 mg/kg i.p. 1 hour and s.c. 6 hours post-occlusion, peri-infarct cortex at 72 hours post-MCAO; for MMP-2 activity/levels (gelatin zymography): 8 mg/kg
# Source text: as §1, §2, §3, §4, §5
# [2] = test system: blood-brain barrier (BBB); experiment: BBB disruption: serum IgG in ischemic cortex by Western blot; format: in vivo, rat; conditions: progesterone 8 mg/kg, s.c.; with tPA; 24 hours after injury
# bEND3 cells = experiment: Transendothelial electrical resistance (TEER) after hypoxia/reperfusion (H/R); format: cell-based, mouse
# Description: (§6) An immortalized mouse brain endothelial cell line (bEND 3) is purchased from American Type Culture Collection (ATCC, VA, USA) and cultured in Dulbecco's modified Eagle Medium (DMEM, ATCC) supplemented with 10% fetal bovine serum (ATCC). bEND 3 cells are seeded onto the luminal side of a filter (0.4 μm pore size; Corning, Lowell, MCA) coated with fibronectin (5 μg/ml) in 12-well plates for a transendothelial electrical resistance (TEER) test; and in 100-mm dishes for Western blot studies. Cell cultures are incubated at 37° C. in a 5%/95% mixture of CO2 and atmospheric air, and the medium is replaced every 3 days.
# The electrical resistance across the membrane are measured using an Millicell ERS Voltohmmeter (Millipore, Billerica, Mass.). The extracellular matrix-treated Transwell inserts are placed in 12-well plates containing culture medium and then used to measure the background resistance. The resistance measurements of these blank filters are then subtracted from those of filters with cells. Values are shown as Q. based on culture inserts.
# To mimic ischemia-like conditions in vitro, immortalized mouse brain endothelial (bEND3) cells were exposed to 6 hours of hypoxia and 3 hours of reoxygeneation with or without the administration of tPA at a dose of 20 μ/ml. Reoxygenation was initiated by adding glucose (4.5 g/L)-containing phenol red-free DMEM for 3 hours at 37° C. in 95% air and 5% CO2. The cells were treated with various concentrations progesterone for 24 hours before hypoxia/reperfusion (H/R). BBB integrity was evaluated by transendothelial membrane electrical resistance (TEER) measurement, MMP-9 activity, and the alteration of tight junction proteins following in vitro H/R injury.
# occludin = experiment: Occludin in H/R-treated bEND3 cells (Western blot, immunofluorescence); format: cell-based, mouse
# Description: as §6, §3
# The bEnd 3 cells grown to confluence on coverslips are subjected to the indicated treatments. […]
# (§7) To mimic ischemia-like conditions in vitro, immortalized mouse brain endothelial (bEND3) cells were exposed to 6 hours of hypoxia and 3 hours of reoxygeneation with or without the administration of tPA at a dose of 20 μ/ml. […] BBB integrity was evaluated by transendothelial membrane electrical resistance (TEER) measurement, MMP-9 activity, and the alteration of tight junction proteins following in vitro H/R injury.
# claudin-5 = experiment: Claudin-5 in H/R-treated bEND3 cells (Western blot); format: cell-based, mouse; conditions: tPA with H/R
# Description: as §6
# Peri-infarct cortical tissue is processed for protein analysis. Tissues are homogenized in T-per (Pierce, Rockford, Ill.) containing protease inhibitor cocktail (P8340, Sigma). Homogenates are centrifuged for 15 minutes at 13,000 g. […] Intensity of the bands is measured by an Image Gauge version. […]
# as §7
# MMP-9 [3] = experiment: Active MMP-9 fluorometric FRET peptide assay of ischemic cortex lysates; format: in vivo, rat; conditions: 24 hours after ischemia; tPA at 4.5 hours; vs control and tMCAO groups
# Description: A Fluorimetric SensoLyte™ 490 kit (AnaSpec Corp., San Jose, Calif. USA) is used to quantify the specific enzymetic activity of active MMP-9 by using a fluorescence resonance energy transfer peptide containing a fluorescent donor and quenching acceptor (Lin, Hou et al. 2008). The samples (100 μg) are placed in a 96-well plate containing 50 μl of assay buffer. The proteolytic resonance energy transfer peptide is expressed as a fold change in fluorescence intensity at excitation of 355 nm/emission of 460 nm.
# For in vivo evaluation, Male SD rats were subjected to MCAO, reperfused at 4.5 hours and then treated with tPA only (5 mg/kg body weight via femoral vein) at 4.5 hours post-stroke or with progesterone (intraperitoneally) at 2 hours post-stroke plus tPA at 4.5 hours post-stroke. Rats were killed at 24 hours post-ischemia and their brains perfused for evaluation of cerebral hemorrhage, brain swelling, BBB permeability, MMP-9 activity, and the alteration of tight junction proteins.
# To directly determine MMP-9 activity after ischemia, proteolytic activity of MMP-9 was measured using a fluorescence resonance energy transfer peptide. […] Consistent with the Western blot results, exposure of cells to H/R and tPA for 9 hours reduced the detected levels of occludin, as compared to control bEND 3 cells, while MMP-9 levels were increased in cells exposed to H/R and tPA for 9 hours.
# MMP-9 [4] = experiment: MMP-9 levels in bEND3 cells exposed to H/R and tPA; format: cell-based, mouse; conditions: bEND3 cells exposed to H/R and tPA for 9 hours; progesterone pretreatment
# Description: The bEnd 3 cells grown to confluence on coverslips are subjected to the indicated treatments. For […], cells are washed three times with PBS, fixed in 3% paraformaldehyde for 10 minutes, permeabilized with 02% Triton X-100 in PBS for 10 minutes and blocked with 10% BSA and 0.1% Triton X-100 in PBS for 1 hour. After washing with PBS, the monolyers are incubated with a primary antibody for occludin (Invitrogen, 1:200) and MMP-9 (Abeam, Mass., USA, 1:200) overnight at 4° C. The cell monolayers are then washed 3 times with PBS and incubated with Alexa Fluor 488 anti-rabbit and orange anti-mouse (Molecular Probes, Eugene, Oreg.) for 1 hour. After washing in PBS, the coverslips are mounted on glass slides with Vectasheild with dapi (Vecta Laboratories).
# as §7
# To directly determine MMP-9 activity after ischemia, proteolytic activity of MMP-9 was measured using a fluorescence resonance energy transfer peptide. […]
SMILES,Expression of MMP-9 (immunohistochemistry) (MMP-9 [1]),Expression of MMP-9 (Western blot) (MMP-9 [1]),MMP-9 activity/levels (gelatin zymography) (MMP-9 [1]),Expression of MMP-2 (immunohistochemistry) (MMP-2),Expression of MMP-2 (Western blot) (MMP-2),MMP-2 activity/levels (gelatin zymography) (MMP-2),Levels of serum IgG in ischemic cortex [2],"H/R-induced decrease of TEER (bEND3 cells; pretreatment with 5, 10 or 20 μM, H/R without tPA)","TEER values compared to untreated (bEND3 cells; progesterone 20 μM, H/R with tPA (FIG. 3C))","Detected levels of occludin (immunofluorescence) (occludin; bEND3 cells exposed to H/R and tPA for 9 hours, progesterone pretreatment)","Expression of occludin (Western blot) (occludin; bEND3 cells, tPA with H/R)",Expression of 23-kDa claudin-5 (Western blot) (claudin-5),MMP-9 activity (FRET peptide) (MMP-9 [3]),MMP-9 levels (MMP-9 [4])
"CC(=O)[C@H]1CC[C@H]2[C@@H]3CC[C@H]4C[C@H](O)CC[C@]4(C)[C@H]3CC[C@]12C [allopregnanolone, 3α-hydroxy-5α-pregnan-20-one]",reduced,decreased,decreased,reduced,decreased,decreased,–,–,–,–,–,–,–,–
"CC(=O)[C@H]1CC[C@H]2[C@@H]3CCC4=CC(=O)CC[C@]4(C)[C@H]3CC[C@]12C [progesterone, pregn-4-ene-3,20-dione]",reduced,decreased,decreased,reduced,decreased,decreased,reduced,significantly prevented,significantly higher,completely inhibited,significantly prevented the decrease,significantly prevented the decrease,inhibited,completely inhibited
